In the experiment the target is Induced myeloid leukemia cell differentiation protein Mcl-1 (Homo sapiens, UniProt Q07820). In words: Inhibition of FITC-labeled Bak BH3 peptide binding to GST-tagged MCL1 (171 to 327 residues) (unknown origin) expressed in Escherichia coli BL21 (DE3) incubated for 30 mins fluorescence polarization-based competitive binding assay. For orientation: In fluorescence polarisation assays a small probe gives low polarisation when free and higher when bound to something large.
Induced myeloid leukemia cell differentiation protein Mcl-1, sequence (Q07820 whole entry, the tested form may be a part): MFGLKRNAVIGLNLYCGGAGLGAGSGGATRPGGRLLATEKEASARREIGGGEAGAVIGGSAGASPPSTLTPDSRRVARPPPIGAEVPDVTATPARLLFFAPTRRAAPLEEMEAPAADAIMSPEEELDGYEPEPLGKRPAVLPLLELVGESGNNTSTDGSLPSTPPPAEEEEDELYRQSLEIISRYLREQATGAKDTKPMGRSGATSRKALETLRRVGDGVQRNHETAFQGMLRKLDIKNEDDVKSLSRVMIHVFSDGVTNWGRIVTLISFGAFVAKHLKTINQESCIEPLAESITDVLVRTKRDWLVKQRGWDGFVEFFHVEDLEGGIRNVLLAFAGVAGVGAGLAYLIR

SMILES strings stand for the structures.

As usually defined, the Ki is the dissociation constant of the complex between target and ligand, obtained from inhibition or displacement. `Cc1cc(OCCCn2c(C)c(S(=O)(=O)c3cccc(Br)c3)c(C)c2C(=O)O)cc(C)c1Cl` gave a Ki of 60 nM.

The compound `Cc1ccc(Sc2c(C)c(C(=O)O)n(CCCOc3cc(C)c(Cl)c(C)c3)c2C)cc1` displayed a Ki of 680 nM. Under `Cc1cc(OCCCn2c(C)c(S(=O)(=O)c3ccc(C(C)(C)C)cc3)c(C)c2C(=O)O)cc(C)c1Cl` stands 340 nM; under `Cc1cc(OCCCn2c(C)c(S(=O)(=O)C3CCCC3)c(C)c2C(=O)O)cc(C)c1Cl`, greater than 10000 nM. As to `Cc1cc(OCCCn2c(C)c(S(=O)(=O)c3ccc([N+](=O)[O-])cc3)c(C)c2C(=O)O)cc(C)c1Cl`, the affinity, expressed as Ki, was 420 nM. For `Cc1cc(OCCCn2c(C)c(S(=O)(=O)c3ccc(N)cc3)c(C)c2C(=O)O)cc(C)c1Cl`, the Ki was 340 nM. The Ki values of the last two compounds are within 1.5-fold of each other.

Compound `Cc1cc(OCCCn2c(C)c(S(=O)(=O)c3ccc(Cl)cc3)c(C)c2C(=O)O)cc(C)c1Cl` returned an inhibitory constant (Ki) of 180 nM. Turning to `Cc1cc(OCCCn2c(C)c(S(=O)(=O)c3cccc(O)c3)c(C)c2C(=O)O)cc(C)c1Cl`, the inhibitory constant (Ki) turned out to be 150 nM. Regarding `Cc1ccc(C(=O)c2cc(C(=O)O)n(CCCOc3cc(C)c(Cl)c(C)c3)c2)cc1`, the inhibitory constant (Ki) came out at 700 nM. Compared with the last compound, the Ki is about 4.7-fold higher. In the case of `Cc1cc(OCCCn2c(C)c(S(=O)(=O)c3cccc4ccccc34)c(C)c2C(=O)O)cc(C)c1Cl` it was 360 nM.

`Cc1ccc(S(=O)(=O)c2c(C)c(C(=O)O)n(CCCOc3cc(C)c(Cl)c(C)c3)c2C)cc1` registered a Ki of 170 nM. Under `Cc1cc(OCCCn2c(C)c(S(=O)(=O)c3ccc(C(=O)O)cc3)c(C)c2C(=O)O)cc(C)c1Cl` stands 420 nM; under `Cc1ccc(S(=O)(=O)Nc2cc(C(=O)O)n(CCCOc3cc(C)c(Cl)c(C)c3)c2)cc1`, greater than 10000 nM; under `CCc1c(S(=O)(=O)c2ccc(C)cc2)c(C)c(C(=O)O)n1CCCOc1cc(C)c(Cl)c(C)c1`, 2490 nM. In the case of `Cc1ccc(S(=O)(=O)c2cc(C(=O)O)n(CCCOc3cc(C)c(Cl)c(C)c3)c2)cc1` it was 470 nM. For `Cc1cc(OCCCn2c(C)c(S(=O)(=O)c3ccccc3)c(C)c2C(=O)O)cc(C)c1Cl`, the affinity, expressed as Ki, was 190 nM. This Ki is about 2.5-fold lower than that of the compound before. `Cc1ccc(S(=O)(=O)c2c(CC(C)C)c(C(=O)O)n(CCCOc3cc(C)c(Cl)c(C)c3)c2C)cc1` yielded an inhibition constant Ki of 240 nM. Under `CCc1c(S(=O)(=O)c2ccc(C)cc2)c(CC)n(CCCOc2cc(C)c(Cl)c(C)c2)c1C(=O)O` stands 1930 nM. Under `CCc1c(S(=O)(=O)c2ccc(C)cc2)c(C)n(CCCOc2cc(C)c(Cl)c(C)c2)c1C(=O)O` stands 120 nM; under `Cc1cc(OCCCn2c(C)c(S(=O)(=O)c3ccc(F)cc3)c(C)c2C(=O)O)cc(C)c1Cl`, 260 nM. `Cc1ccc(S(=O)(=O)c2c(C)c(C(=O)O)n(CCCOc3cc(C)c(Cl)c(C)c3)c2CC(C)C)cc1` registered a Ki of 1600 nM. This Ki lies about 6.2-fold higher than the previous one.

Consider `Cc1cc(C)cc(S(=O)(=O)c2c(C)c(C(=O)O)n(CCCOc3cc(C)c(Cl)c(C)c3)c2C)c1`, for which the Ki was greater than 10000 nM. In the case of `Cc1cc(OCCCn2c(C)c(S(=O)(=O)C3CCCCC3)c(C)c2C(=O)O)cc(C)c1Cl` it was greater than 10000 nM; in that of `Cc1cc(OCCCn2c(C)c(S(=O)(=O)c3ccccn3)c(C)c2C(=O)O)cc(C)c1Cl`, 1900 nM. For the compound `Cc1cc(OCCCn2c(C)c(S(=O)(=O)c3ccncc3)c(C)c2C(=O)O)cc(C)c1Cl`, the Ki stood at 900 nM. Against the preceding compound, the Ki is about 2.1-fold lower. In the case of `Cc1cc(OCCCn2c(C)c(S(=O)(=O)c3ccc(Oc4ccccc4)cc3)c(C)c2C(=O)O)cc(C)c1Cl` it was 200 nM. Turning to `Cc1cc(OCCCn2c(C)c(S(=O)(=O)c3ccc(-c4ccccc4)cc3)c(C)c2C(=O)O)cc(C)c1Cl`, the Ki was determined as 130 nM. This Ki lies about 1.5-fold lower than the previous one. Take `Cc1cc(OCCCn2c(C)c(S(=O)(=O)Cc3ccccc3)c(C)c2C(=O)O)cc(C)c1Cl`: affinity was put at a Ki of 2000 nM. Under `CC(=O)c1cccc(S(=O)(=O)c2c(C)c(C(=O)O)n(CCCOc3cc(C)c(Cl)c(C)c3)c2C)c1` stands 550 nM; under `Cc1cc(OCCCn2c(C)c(S(=O)(=O)c3ccccc3Br)c(C)c2C(=O)O)cc(C)c1Cl`, greater than 10000 nM; under `Cc1ccc(CNc2cc(C(=O)O)n(CCCOc3cc(C)c(Cl)c(C)c3)c2)cc1`, greater than 10000 nM.

The values are drawn from ChEMBL document CHEMBL4834480, “Discovery of 3,5-Dimethyl-4-Sulfonyl-1H-Pyrrole-Based Myeloid Cell Leukemia 1 Inhibitors with High Affinity, Selectivity, and Oral Bioavailability” (J Med Chem, 2021).
